Reference: article doi:10.1101/2019.12.19.881847v1 (biorxiv, 2019)
Like-named read-outs stand apart in the source and are kept apart here.

Key:
VqmA [1] = target: T1, VqmA (Vibrio cholerae, UniProt A0A0F0AZW0); test: biochemical
Target sequence in this assay (A0A0F0AZW0 1-246 limits assumed): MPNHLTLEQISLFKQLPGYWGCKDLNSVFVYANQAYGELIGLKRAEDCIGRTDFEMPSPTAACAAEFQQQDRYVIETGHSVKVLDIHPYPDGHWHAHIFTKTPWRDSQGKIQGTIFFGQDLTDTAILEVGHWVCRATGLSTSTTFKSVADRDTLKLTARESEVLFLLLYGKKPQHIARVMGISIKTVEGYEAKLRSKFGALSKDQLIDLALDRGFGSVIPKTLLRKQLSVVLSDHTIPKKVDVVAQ

VqmA [2] = target: T1, VqmA; test: biochemical; remark: listed apart in the source
Target sequence in this assay (A0A0F0AZW0 1-246): as the sequence (A0A0F0AZW0 1-246 limits assumed) above

Row | SMILES | Kd (VqmA [1]) [µM] | Kd (VqmA [2]) [µM]
1 | CC1NC(C)(C)CNC1=O (stereo not drawn) [compound 2, 3,5,5-trimethylpiperazin-2-one] | 7 ± 3.1 | 
2 | Cc1cnc(O)cn1 [compound 5, 5] |  | 6 ± 1
3 | C[C@H]1NC(C)(C)CNC1=O [compound 1, (R)-3,5,5-trimethylpiperazin-2-one] | 10.3 ± 3.1 | 
